Test results taken from US6241963A, “Dopamine and serotonin transporter ligands and imaging agents” (priority 1996, dated 2001).
Values joined by “and” are separate entries in the source; they are usually repeats but may differ in a detail not shown here. Equal entries are not always repeated. Where two headings read alike, the source gives them in different places.

Experiments:
[1] = biological target: T1, rat striatal homogenates (dopamine transporter) (Rattus norvegicus, UniProt P23977); test: In vitro binding with rat striatal homogenates using [^125 I]IPT as the ligand; conditions: for Ki: [^125 I]IPT as ligand
T1 construct: from tissue; host or cells: rat striatum homogenate

[2] = biological target: T2, dopamine transporters (Rattus norvegicus, UniProt P23977); type: in vivo, Male Sprague-Dawley rats; conditions: rats, iv
Method: For dopamine transporter imaging agents, the target area of the brain is the striatum, where dopamine transporters are highly concentrated. The cerebellum region is suitable for use as the background region, because it has no dopamine transporters. The specific uptake is measured by the ratio of % dose/gram of striatum divided by % dose/gram of cerebellum (ST/CB ratio)--the higher the value, the better the specific uptake, and the more promising as a dopamine transporter imaging agent.
(§1) Regional brain distribution in rats was obtained after an injection of 1.19a, 1.19b, 1.20a, 1.20b or 1.21. Samples from different brain regions (cortex, striatum, hippocampus, and cerebellum) were dissected, weighed and counted, and the percentage dose per gram of sample was calculated by comparing the sample counts with the count of the diluted initial dose. The uptake ratio of each region was obtained by dividing the percentage dose per gram of that region by that of the cerebellum. For blocking studies, rats were injected with either β-CIT or haloperidol (iv, 1 mg/Kg) 5 min prior to injection of 1.19a. The rats were dissected and brain tissue samples were counted as described above. The specific uptake of the compound was expressed as ratio of ST/CB (% dose/g of striatum divided by the same of cerebellum).
(§2) The major criteria for determining the potential usefulness of in vivo dopamine transporter imaging agents are based on an animal biodistribution study. In this case, rats were used as an animal model. After an intravenous injection of the Tc-99m labeled compounds, the values of initial brain uptake (% dose/whole organ) at 2 minutes post intravenous injection are used to measure the ability to penetrate the intact blood-brain barrier. Compounds displaying higher brain uptake are the better agents (minimum requirement >0.1% dose in brain). The second criteria is the specific uptake in the striatum region of the brain, where dopamine transporters are located. The uptake value (% dose/gram) of the striatum (ST) is divided by the background area, cerebellum (CB; essentially devoid of dopamine transporter); the ratio of ST/CB is an indicator for specific uptake (minimum requirement for ST/CB >1.5). Five structurally similar tropane derivatives were examined in this biological study. (Tables 1.1 to 1.4).
as §1, with “3.24 to 3.34.” for “1.19a, 1.19b, 1.20a, 1.20b or 1.21.”, “3.25.” for “1.19a.”, “above.” for “above. The specific uptake of the compound was expressed as ratio of ST/CB (% dose/g of striatum divided by the same of cerebellum).”

[3] = Partition coefficient between 1-octanol (n-octanol) and buffer; type: physicochemical; conditions: for Partition coefficient (P.C.), 1-octanol/pH 7.0 buffer: 1-octanol/pH 7.0 phosphate buffer
Method: (§3) Partition coefficients were measured by mixing each Tc-99m compound with 3 g each of 1-octanol and buffer (pH 7.0 or 7.4, 0.1 M phosphate) in a test tube. The test tube was vortexed for 3 minutes at room temperature, then centrifuged for 5 minutes. Two weighed samples (0.5 g each) from the 1-octanol and buffer layers were counted in a well counter. The partition coefficient was determined by calculating the ratio of cpm/g of octanol to that of buffer. Samples from the octanol layer were repartitioned until consistent partition coefficient values were obtained. The measurement was repeated 3 times.
as §3, with “The partition coefficient was measured” for “Partition coefficients were measured”, “mixing the” for “mixing each”, “3 min” for “3 minutes”

[4] = type: in vivo, Male Sprague-Dawley rats
Method: Male Sprague-Dawley rats (225-300 g) allowed free access to food and water were used for in vivo biodistribution studies. Kung, 1984, supra; Kung, 1985, supra. While under ether anesthesia, 0.2 mL of a saline solution containing 1.19a, 1.19b, 1.20a, 1.20b or 1.21 (50-100 μCi) was injected directly into the femoral vein of rats, and the rats were sacrificed by cardiac excision at various time points post-injection. The organs of interest were removed and weighed, and the radioactivity was counted with an automatic gamma counter (Packard 5000). The percentage dose per organ was calculated by a comparison of the tissue counts to suitably diluted aliquots of the injected material. Total activities of blood and muscle were calculated under the assumption that they were 7% and 40% of the total body weight, respectively.
as §2
Male Sprague-Dawley rats (225-300 g) that were allowed free access to food and water were used for in vivo biodistribution studies. (Kung, 1984, supra; Kung, 1985, supra). While under halothane anesthesia, 0.2 mL of a saline solution containing 3.24 to 3.34 ([…]) was injected directly into the femoral vein of rats, and they were sacrificed by cardiac excision at various time points post-injection. The organs of interest were removed and weighed, and the radioactivity was counted with an automatic gamma counter (Packard 5000). The percentage dose per organ was calculated by a comparison of the tissue counts to suitably diluted aliquots of the injected material. Total activities of blood and muscle were calculated under the assumption that they were 7% and 40% of the total body weight, respectively.

[5] = biological target: T2, dopamine transporters; test: In vitro autoradiography of rat brain sections; type: binding, Male Sprague-Dawley rats; conditions: rat brain coronal sections
Method: Male Sprague-Dawley rats ([…]) were sacrificed by decapitation, and the brains were removed, placed in OTC embedding medium (Miles Laboratory, Elkhart, Ind.) frozen in powdered dry ice. After equilibration to -15° C., 20 μm coronal sections were sliced on a cryostat (Hacker Instruments, Fairfield, N.J.), thaw mounted onto gelatin-coated slides, desiccated at 4° C. for 3 hours and kept at -70° C. until use. Prior to the experiment, the slides were dried at room temperature and preincubated for 30 minutes in buffer containing 50 mM Tris-HCl (pH 7.4, 120 mM NaCl). The slides were then incubated for 2 hours in preincubation buffer and the [^99m Tc] compound 3.25 (385,000 cpm/200 μL) in a coplan jar, washed for 1 hour in cold Tris buffer, with one change of buffer, dipped in ice-cold water to remove buffer salts and allowed to dry at room temperature. Nonspecific binding was determined in the presence of 1 μM IPT. These slides were simultaneously exposed to DuPont x-ray film in an autoradiographic cassette for 18 hours. The exposed film was developed with a Kodak automatic film processor.

[6] = test system: dopamine transporters; conditions: cited from earlier work

T1 sequence (P23977 whole entry): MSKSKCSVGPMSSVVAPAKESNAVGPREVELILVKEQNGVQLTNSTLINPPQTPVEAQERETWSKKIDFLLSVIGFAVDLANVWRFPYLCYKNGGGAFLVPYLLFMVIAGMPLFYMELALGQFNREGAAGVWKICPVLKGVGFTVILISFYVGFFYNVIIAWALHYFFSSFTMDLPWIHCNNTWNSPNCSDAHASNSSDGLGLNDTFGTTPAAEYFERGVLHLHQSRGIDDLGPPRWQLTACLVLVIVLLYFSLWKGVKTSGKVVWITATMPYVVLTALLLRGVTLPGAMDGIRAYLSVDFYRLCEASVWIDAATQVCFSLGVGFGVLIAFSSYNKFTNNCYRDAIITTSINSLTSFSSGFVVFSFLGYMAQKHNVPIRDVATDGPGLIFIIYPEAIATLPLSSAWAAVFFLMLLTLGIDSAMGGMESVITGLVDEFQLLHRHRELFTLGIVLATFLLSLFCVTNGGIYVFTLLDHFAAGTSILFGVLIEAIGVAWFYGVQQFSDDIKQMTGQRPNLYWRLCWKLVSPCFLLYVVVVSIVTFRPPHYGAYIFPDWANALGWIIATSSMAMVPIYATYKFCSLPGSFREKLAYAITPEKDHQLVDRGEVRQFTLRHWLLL
T2 sequence (P23977 whole entry): as above

| Compound | Ki [1] [nM] | ST/CB ratio, 60 min [2] | Partition coefficient (P.C.), 1-octanol/pH 7.0 buffer [3] | Brain uptake, 2 min ([4]; rats, iv, 2 min) [% dose/organ] | Brain uptake, 60 min ([4]; rats, iv) [% dose/organ] | also measured |
| --- | --- | --- | --- | --- | --- | --- |
| 2b-{oxo[N,N'-bis-(2'-mercaptoethyl)-ethylenediaminato)]rhenium (V)-methylamino}-3b-(4-chlorophenyl)tropane [Compound 1.22] | 14 | – | – | – | – | – |
| CN1[C@H]2CC[C@@H]1[C@@H](CN(CCS)CCNCCS)[C@@H](c1ccc(Cl)cc1)C2 [Compound 1.16a] | 7 | – | – | – | – | – |
| CN1[C@H]2CC[C@@H]1[C@@H](C(=O)[N+]13CC[S][99Tc-]14(=[O])[S]CC[N]4CC3)[C@@H](c1ccc(Cl)cc1)C2 (stereo partly shown) [Compound 1.19b] | – | 2.78 and 2.78 ± 0.32 | 230 | 0.39 ± 0.12 | 0.11 ± 0.02 | ST/CB ratio, 30 min [2]: 2.78; Brain uptake, 30 min ([4]; rats, iv): 0.21 ± 0.03 % dose/organ |
| CN1[C@H]2CC[C@@H]1[C@@H](C[N+]13CC[S][99Tc-]14(=[O])[S]CC[N]4CC3)[C@@H](c1ccc(F)cc1)C2 (stereo partly shown) [Compound 1.20a] | – | 2.18 and 2.18 ± 0.32 | 99-1818 and 99 | 0.37 ± 0.09 | 0.098 ± 0.014 | – |
| CN1[C@H]2CC[C@@H]1[C@@H](C(=O)[N+]13CC[S][99Tc-]14(=[O])[S]CC[N]4CC3)[C@@H](c1ccc(F)cc1)C2 (stereo partly shown) [Compound 1.20b] | – | 1.92 and 1.92 ± 0.28 | 99-1818 and 104 | 0.31 ± 0.09 | 0.07 ± 0.010 | – |
| CN1[C@H]2CC[C@@H]1[C@@H](C[N+]13CC[S][99Tc-]14(=[O])[S]CC[N]4C(=O)C3)[C@@H](c1ccc(Cl)cc1)C2 (stereo partly shown) [Compound 1.21] | – | 1.17 ± 0.010 | 1818 | 0.11 ± 0.02 | – | Brain uptake and specific striatal uptake, in words [2]: lowest brain uptake; ST/CB ratio, 30 min [2]: 1.17; ST/CB ratio, 60 min ([2]; listed as 21): 1.17; Partition coefficient / lipophilicity, comparison in words [3]: almost tenfold higher partition coefficient; Brain uptake, 60 min, footnote c ([4]; data from rats sacrificed at 30 minutes): 0.07 ± 0.014 % dose/organ; Brain uptake lower than 1.19a and 1.19b ([4]; rats, iv, 2 min): at least 300%; Brain uptake, 30 min ([4]; rats, iv): 0.070 ± 0.014 % dose/organ |
| COC(=O)[C@H]1[C@@H](c2ccc(Cl)cc2)C[C@@H]2CC[C@H]1N2CC[S][Re-]12(=[O])[S]CC[N+]1(C)CC[S]2 (stereo partly shown) [Compound 3.23] | 0.3 | – | – | – | – | – |
| COC(=O)[C@H]1[C@@H](c2ccc(Cl)cc2)C[C@@H]2CC[C@H]1N2CC=CI [IPT, N-(3-iodopropen-2-yl)-2β-carbomethoxy-3β-(4-chlorophenyl)tropane, reference compound] | – | – | – | – | – | Autoradiographic regional labeling [5]: almost identical regional labeling pattern; Time for reaching optimal uptake ratio / equilibrium ([6]; basal ganglia versus frontal cortex): less than one hour; Literature binding / localization / biodistribution, in words ([6]; in vivo): much higher binding affinity and selectivity to dopamine reuptake sites; Kd ([1]; data not shown, read-out: Kd of the radioligand [^125 I]IPT): 0.2 nM |
